Data: the NIST ThermoML archive (doi:10.1021/acs.jced.8b00812)

Conditions: Liquid; for viscosity: Capillary tube (Ostwald / Ubbelohde) method; for mass density: Vibrating tube method

CCCCCCCO [heptan-1-ol]
Conditions	mass density [kg/m3]	viscosity [mPa·s]
298.15 K, 2000 kPa	820.2	5.971
298.15 K, 4020 kPa	821.4	6.1
298.15 K, 6010 kPa	822.8	6.229
298.15 K, 8000 kPa	824	6.364
298.15 K, 10000 kPa	825.3	6.484
298.15 K, 13000 kPa	827.1	6.686
298.15 K, 16000 kPa	828.9	6.881
298.15 K, 19000 kPa	830.7	7.084
298.15 K, 22000 kPa	832.5	7.293
298.15 K, 25000 kPa	834.2	7.516
298.15 K, 28000 kPa	835.9	7.72
298.15 K, 29990 kPa	836.9	7.864
303.16 K, 2030 kPa	816.5	5.186
303.16 K, 4030 kPa	817.9	5.302
303.16 K, 6040 kPa	819.3	5.42
303.16 K, 7980 kPa	820.5	5.534
303.16 K, 9990 kPa	821.8	5.651
303.16 K, 12990 kPa	823.6	5.826
303.16 K, 16020 kPa	825.5	6.004
303.16 K, 19020 kPa	827.3	6.179
303.16 K, 22000 kPa	829.2	6.353
303.16 K, 24980 kPa	830.9	6.527
303.16 K, 27980 kPa	832.5	6.703
303.16 K, 30010 kPa	833.7	6.822
313.15 K, 2000 kPa	809.2	3.763
313.15 K, 4000 kPa	810.6	3.848
313.15 K, 5980 kPa	811.9	3.932
313.15 K, 7980 kPa	813.3	4.017
313.15 K, 9970 kPa	814.6	4.101
313.15 K, 13030 kPa	816.5	4.231
313.15 K, 16020 kPa	818.4	4.358
313.15 K, 19000 kPa	820.4	4.484
313.15 K, 22020 kPa	822.2	4.613
313.15 K, 25010 kPa	824	4.739
313.15 K, 27980 kPa	825.7	4.865
313.15 K, 30010 kPa	826.9	4.952
323.15 K, 1990 kPa	802.1	2.748
323.15 K, 4010 kPa	803.4	2.812
323.15 K, 5990 kPa	804.8	2.876
323.15 K, 8010 kPa	806.2	2.94
323.15 K, 10010 kPa	807.6	2.997
323.15 K, 13000 kPa	809.7	3.088
323.15 K, 16000 kPa	811.8	3.179
323.15 K, 18990 kPa	813.7	3.266
323.15 K, 22000 kPa	815.6	3.358
323.15 K, 25000 kPa	817.4	3.451
323.15 K, 28000 kPa	819.3	3.542
323.15 K, 30000 kPa	820.5	3.607

CCCCCO [pentan-1-ol]
Conditions	mass density [kg/m3]	viscosity [mPa·s]
298.15 K, 2000 kPa	813	3.59
298.15 K, 4000 kPa	814.4	3.66
298.15 K, 6000 kPa	815.8	3.732
298.15 K, 8010 kPa	817.1	3.796
298.15 K, 10000 kPa	818.5	3.869
298.15 K, 13000 kPa	820.4	3.975
298.15 K, 16000 kPa	822.3	4.081
298.15 K, 19010 kPa	824.1	4.192
298.15 K, 22000 kPa	825.9	4.299
298.15 K, 25000 kPa	827.6	4.409
298.15 K, 27990 kPa	829.4	4.507
298.15 K, 29980 kPa	830.4	4.577
303.15 K, 19000 kPa	820.3	3.757
303.15 K, 27980 kPa	825.6	4.041
303.16 K, 1980 kPa	808.8	3.219
303.16 K, 3980 kPa	810.2	3.282
303.16 K, 6010 kPa	811.7	3.346
303.16 K, 8020 kPa	813	3.41
303.16 K, 10030 kPa	814.4	3.474
303.16 K, 12990 kPa	816.4	3.567
303.16 K, 15980 kPa	818.4	3.662
303.16 K, 22010 kPa	822.1	3.852
303.16 K, 25000 kPa	823.9	3.947
303.16 K, 29990 kPa	826.7	4.105
313.15 K, 1990 kPa	800.6	2.438
313.15 K, 4000 kPa	802.2	2.486
313.15 K, 5980 kPa	803.7	2.533
313.15 K, 7980 kPa	805.1	2.581
313.15 K, 10020 kPa	806.6	2.629
313.15 K, 13010 kPa	808.7	2.701
313.15 K, 19020 kPa	812.8	2.845
313.15 K, 21980 kPa	814.7	2.916
313.15 K, 30020 kPa	819.6	3.109
313.16 K, 15980 kPa	810.8	2.772
313.16 K, 24990 kPa	816.6	2.988
313.16 K, 28000 kPa	818.4	3.06
323.15 K, 2000 kPa	793.5	1.833
323.15 K, 4000 kPa	795	1.866
323.15 K, 6000 kPa	796.7	1.901
323.15 K, 8000 kPa	798.2	1.935
323.15 K, 10000 kPa	799.6	1.969
323.15 K, 13000 kPa	801.9	2.022
323.15 K, 16000 kPa	804	2.078
323.15 K, 19000 kPa	806.1	2.133
323.15 K, 22000 kPa	808.2	2.189
323.15 K, 25000 kPa	810.2	2.244
323.15 K, 27990 kPa	812.1	2.299
323.15 K, 29990 kPa	813.4	2.335

CCCCCCCCCO [nonan-1-ol]
Conditions	mass density [kg/m3]	viscosity [mPa·s]
298.15 K, 1990 kPa	825.5	9.285
298.15 K, 3990 kPa	826.7	9.511
298.15 K, 6000 kPa	828	9.746
298.15 K, 8010 kPa	829.2	9.958
298.15 K, 10010 kPa	830.5	10.17
298.15 K, 13000 kPa	832.2	10.51
298.15 K, 16000 kPa	833.9	10.85
298.15 K, 19010 kPa	835.5	11.2
298.15 K, 21990 kPa	837.1	11.56
298.15 K, 25000 kPa	838.7	11.93
298.15 K, 28020 kPa	840.2	12.28
298.15 K, 30020 kPa	841.1	12.51
303.14 K, 27980 kPa	836.9	11.13
303.15 K, 2010 kPa	822	8.424
303.15 K, 4010 kPa	823.2	8.633
303.15 K, 6020 kPa	824.5	8.843
303.15 K, 8030 kPa	825.7	9.053
303.15 K, 9990 kPa	826.9	9.257
303.15 K, 12980 kPa	828.7	9.568
303.15 K, 15970 kPa	830.4	9.88
303.15 K, 19020 kPa	832.1	10.2
303.15 K, 22010 kPa	833.8	10.51
303.15 K, 25000 kPa	835.4	10.82
303.15 K, 30000 kPa	837.9	11.34
313.15 K, 2000 kPa	814.9	6.381
313.15 K, 3970 kPa	816.3	6.536
313.15 K, 6020 kPa	817.6	6.699
313.15 K, 7990 kPa	818.9	6.854
313.15 K, 10020 kPa	820.2	7.015
313.15 K, 13000 kPa	822	7.25
313.15 K, 16000 kPa	823.8	7.487
313.15 K, 18980 kPa	825.6	7.723
313.15 K, 22000 kPa	827.3	7.961
313.15 K, 25000 kPa	829	8.198
313.15 K, 28010 kPa	830.6	8.436
313.15 K, 29990 kPa	831.7	8.592
323.15 K, 2010 kPa	808.3	4.745
323.15 K, 4020 kPa	809.7	4.859
323.15 K, 6020 kPa	811	4.976
323.15 K, 8010 kPa	812.3	5.09
323.15 K, 10010 kPa	813.7	5.202
323.15 K, 13010 kPa	815.7	5.376
323.15 K, 16010 kPa	817.5	5.539
323.15 K, 19000 kPa	819.3	5.716
323.15 K, 22010 kPa	821.1	5.892
323.15 K, 25000 kPa	822.9	6.07
323.15 K, 28000 kPa	824.6	6.247
323.15 K, 30000 kPa	825.7	6.373
